# Laboratory results from patent publication US5393777A, “Deferration using anguibactin siderophore” (State of Oregon Acting by and through the State Board of …, priority 1990, dated 1995).
# “Also recorded” adds a separate entry of the source. Read-outs that look alike come from different tables or passages of the source.
# Experiments:
# [1] = deferoxamine; cited from earlier work
# [2] = tested on: ferritin; conditions: cited from earlier work
# [3] = cited from earlier work
# [4] = tested on: hemosiderin; conditions: cited from earlier work
# [5] = in vivo; cited from earlier work
# [6] = deferoxamine; cited from earlier work; remark: listed apart in the source
# [7] = tested on: hemoglobin; conditions: cited from earlier work
# [8] = cited from earlier work; remark: listed apart in the source
# [9] = human, in vivo; cited from earlier work
# [10] = tested on: cytochromes; conditions: cited from earlier work
# [11] = tested on: Yersinia enterocolitica; conditions: in some cases; cited from earlier work
# [12] = theoretical; cited from earlier work
# [13] = tested on: transferrin; conditions: deferoxamine; cited from earlier work
# [14] = as known in the art; cited from earlier work
# [15] = tested on: human diploid fibroblast cells; experiment: inhibition of 59Fe uptake by normal human diploid fibroblast cells (FIG. 3); format: cell-based; conditions: 59Fe-containing cell-growth medium
# Description: An experiment was conducted to characterize the chelation properties of anguibactin by examining its effect on iron uptake by mammalian cells in culture.
# Normal human diploid fibroblast cells were mixed with ^59 Fe-containingcell-growth medium. Samples of the dosed cells were then incubated for increasing lengths of time. After each time period, the corresponding samples were rinsed to remove any free radioiron. The rinsed cells were treated with trypsin and the lysates precipitated with trichloroacetic acid. Radioactive counting of the precipitated lysates was performed using a Beckman counter. Addition of anguibactin and subsequent assay for radioiron in otherwise identical parallel samples yielded a measure of the capacity of the siderophore present in the cell-growth medium to interrupt the uptake of radioiron by the cultured cells.
# [16] = Ga(III) binding; conditions: anguibactin
# Description: The structure of anguibactin was determined as outlined in Jalal et al., J. Am. Chem. Soc. 111:292 (1989), and shown schematically in FIG. 2. Anguibactin has a molecular weight of 348 g/mol, which is about half the molecular weight of deferoxamine (657 g/mol). Anguibactin can be regarded as a form of catechol rather than a monophenol. It has a unique structure which bears some resemblance to pyochelin. See Llinas et al., Biochemistry 12:3836 (1973). Anguibactin has been identified as ω-N-hydroxy-ω-[[2'-(2'',3''-dihydroxyphenyl)thiazolin-4'-yl]-carboxy]histamine by crystal X-ray diffraction studies of its anhydro derivative, proton and ^13 C nuclear magnetic resonance spectroscopy of its deferri and Ga(III) complex, fast-atom bombardment (FAB) mass spectrometry, and chemical degradation.
# [17] = binding of other metals
# [18] = tested on: Vibrio anguillarum; experiment: experimental infection of salmonid fishes, iron supply by siderophore for growth of avirulent strain; format: in vivo; conditions: fish infected with wild-type V. anguillarum
# Description: A mutant strain of Vibrio anguillarum termed 775:Tn1-5 was produced which contained the pJM1-derivative plasmid pJHC-91 in which a transposon element Tn1 was inserted into genetic unit I. This mutant strain can grow in vitro in iron-limited media only if the supernatant from strains containing the wild-type pJM1 plasmid, and thus plenty of anguibactin, is supplied. Therefore, strains harboring the pJHC-91 plasmid must be able to transport and incorporate iron from anguibactin but are not able to produce this anguibactin itself. Strains containing the pJHC-91 plasmid are able to synthesize the pOM2 outer membrane protein.
# [19] = competitive binding assay, removal of Fe3+ from aerobactin; conditions: competitive binding assays
# [20] = tested on: transferrin; experiment: removal of Fe3+ from transferrin; conditions: anguibactin; competitive binding assays
# [21] = toxicity, general; conditions: preliminary studies
# [22] = stability to acid hydrolysis; format: physicochemical
# [23] = excretion of radioiron (59Fe) in urine and feces; format: in vivo, rats; conditions: about 10 mg incubated with 59FeCl3, subcutaneous, urine and feces over a week
# Description: To determine the ability to excrete chelated iron, a procedure similar to that generally used to evaluate iron chelators is employed. Trace amounts of ^59 FeCl3 are incubated in vitro with about 10 mg anguibactin and subcutaneously injected into normal subjects such as rats. Cumulative excretion of radioiron is measured during the subsequent week in urine and feces. Weak iron chelators are not able enhance ^59 Fe excretion relative to a control injected with ^59 FeCl3 only. […] Evaluation of the distribution of radioiron in urine and stool provides an indication of whether the siderophore-bound iron is removed from plasma by kidneys (urine) or by the liver followed by excretion to the bile (stool).
# [24] = tested on: iron-binding proteins in the fish host; experiment: removal of iron from iron-binding proteins in the fish host; conditions: in vivo
# [25] = removal of ferric ion from ferric hydroxide; format: binding; conditions: aqueous, pH between 7 and 8
# [26] = toxicity on injection into fish; format: in vivo; conditions: injection of 400 μl anguibactin
# Description: (§1) Preliminary studies indicate that anguibactin toxicity is very low.
# [27] = tested on: rat heart cells; experiment: inhibition of iron uptake by rat heart cells; format: cell-based; conditions: non-immortalized cells, data not shown
# [28] = removal of ferric iron from aqueous solutions
# [29] = ferrous (Fe2+) affinity; format: binding
# [30] = toxicity on injection into rabbits; format: in vivo, rabbit; conditions: injection of 400 μl
# Description: as §1
# [31] = ferric iron (Fe3+) binding / affinity / formation constant
# Description: Each molecule of anguibactin chelates one ferric (Fe^3+ or Fe(III)) ion. Anguibactin also binds Ga(III).
# [32] = solubility
# [33] = calcium (Ca2+) affinity; format: binding; conditions: anguibactin
structure (smiles),measurement,setting,value
CC(=O)N(O)CCCCCNC(=O)CCC(=O)N(O)CCCCCNC(=O)CCC(=O)N(O)CCCCCN [deferoxamine],excretion of radioiron,[1],enhance excretion of radioiron
same,removal of iron from ferritin,[2],wrests iron from ferritin
same,"Intravenous LD50, mice",[3],287 mg/kg
same,removal of iron from hemosiderin,[4],wrests iron from ferritin and hemosiderin
same,absorption after oral administration,[5],poorly absorbed after oral administration
same,acid hydrolysis,[6],prone to acid hydrolysis
same,removal of iron from hemoglobin,[7],substantially not at all from cytochromes and hemoglobin
same,"Intravenous LD50, rats",[8],329 mg/kg
same,toxic reactions,[9],"toxic and can cause a number of reactions, including allergic reactions: pruritis, wheals, rash, and anaphylaxis; and dysuria, gastrointestinal symptoms, diarrhea, fever, leg cramps, hypotension, and tachycardia"
same,removal of iron from cytochromes,[10],substantially not at all from cytochromes
same,effect on susceptibility of iron-overload patients to Yersinia enterocolitica infections,[11],"enhanced this susceptibility, resulting in generalized infections"
same,capacity of binding ferric iron,[12],about 8.5 parts by weight
same,removal of iron from transferrin,[13],not readily from transferrin
O=C(O)CN(CCN(CC(=O)O)CC(=O)O)CC(=O)O [EDTA],toxicity of calcium chelators,[14],relatively toxic
"O=C(C1CSC(c2cccc(O)c2O)=N1)N(O)CCc1c[nH]cn1 (centres unmarked) [anguibactin, ω-N-hydroxy-ω-[[2'-(2'',3''-dihydroxyphenyl)thiazolin-4'-yl]-carboxy]histamine]",inhibition of iron uptake by human fibroblast cells,[15],"inhibits uptake, from a liquid medium, of iron by cultured human diploid fibroblast cells; also recorded: interrupts the flow of iron into human cells"
same,inhibition of iron uptake by human fibroblast cells,[15]; listed as Anguibactin,inhibits iron uptake by living cells
same,binding of Ga(III),[16],binds Ga(III)
same,binding of metals other than iron known to be essential for bacterial metabolism,[17],does not bind any metal other than iron known to be essential for bacterial metabolism
same,level of siderophore in blood and kidneys of infected fish,[18],sufficient to provide iron for considerable growth of the avirulent strain
same,removal of Fe3+ from other siderophores such as aerobactin,[19],able to remove Fe^3+ from other siderophores such as aerobactin
same,removal of Fe3+ from transferrin,[20],able to remove Fe^3+
same,toxicity,[21],very low
same,toxicity,[21]; listed as Anguibactin,very low toxicity
same,cleavage by hydrochloric acid,[22]; 6N hydrochloric acid,"cleave anguibactin to 2,3-dihydroxybenzoic acid, dehydrocystine, and histamine"
same,acid hydrolysis below pH 3,[22]; environment more acidic than pH 3,undergoes acid hydrolysis to at least a partial degree
same,pH down to which the molecule remains intact,[22]; pH,≥ 3
same,excretion of radioiron,[23],enhance excretion of radioiron
same,removal of iron from transferrin and other iron-binding proteins in the fish host,[24],very efficient in removing iron from aqueous solution as well as from transferrin and from other iron-binding proteins in the fish host
same,removal of ferric ion from ferric hydroxide,[25],remove ferric ion from ferric hydroxide
same,"adverse effect, fish",[26],no discernable adverse effect
same,inhibition of iron uptake by rat heart cells,[27],substantially the same results
same,inhibition of iron uptake by rat heart cells,[27]; listed as Anguibactin,inhibits iron uptake by living cells
same,removal of iron from aqueous solution,[28],"capable of removing ferric iron from aqueous solutions, including cell-culture medium; also recorded: very efficient in removing iron from aqueous solution"
same,affinity for ferrous (Fe2+) ions,[29],only a very weak affinity; also recorded: little affinity
same,"adverse effect, rabbits",[30],no discernable adverse effect
same,affinity for ferric ions,[31],extremely high
same,dependence of Fe3+ binding on pH,[31],dependent on pH
same,ferric (Fe3+) ions chelated per molecule,[31],one
same,iron chelating power compared with deferoxamine,[31]; from competitive binding data,more powerful iron chelator than the widely used deferoxamine
same,Fe3+ binding in mildly alkaline conditions,[31]; mildly alkaline conditions,excellent binding can be achieved
same,solubility in methanol,[32]; methanol,freely soluble in water and methanol
same,solubility in water,[32],highly soluble in water
same,solubility in water,[32]; listed as Anguibactin,freely soluble in water
same,affinity for Ca2+ ions,[33],only a very weak affinity
